Patent US5668137A, “N-heterocyclic sulfonamides having endothelin receptor activity” (Zeneca Ltd., priority 1995, dated 1997)

Test system: Human ETA or ETB receptors
Assay: Test A: inhibition of [125I]-Endothelin-1 binding to MEL cell membranes expressing recombinant receptor
Details: inhibition of 30 pM [125I]-Endothelin-1 binding, 180 minutes at 30° C., receptor sub-type (ETA or ETB) not stated
Text: The endothelin receptor antagonist activity of compounds of formula I may be assessed in vitro by their ability to inhibit binding of [^125 ]-Endothelin-1 to its receptors. Human ETA or ETB receptors (sub-types of the endothelin receptor) were expressed in Mouse Erythroleukemic Cells (MEL cells) by using standard molecular techniques (for example, as described by Sambrook J., Fritsch E. F. & Maniatis T. (1989) Molecular Cloning: A Laboratory Manual, 2nd Edition, Cold Spring Harbor Press, USA). cDNA sequences encoding the human ETA, and ETB receptor (Hosoda K. et al (1991), FEBS Lett., 287, 23-26 and Sakamoto A. et al, (1991), Biochem. Biophys Res. Comm., 178, 656-663) are subcloned into pBluescript vector followed by insertion into the MEL cell expression vector pEV as described by Needham et al (1992), Nuc. Acids Res., 20, 997-1003. […]
[^125 I]-Endothelin-1 binding to MEL cell membranes was measured in incubation buffer containing 50 mM Tris HCl, 1 mM CaCl2, 0.05% polyoxyethylenesorbitan monolaurate, 0.1% Bovine Serum Albumin (BSA), 0.02% sodium azide pH 7.4 at 30° C. after 180 minutes incubation. […] Nonspecific binding was measured in the presence of 100 nM unlabelled Endothelin-1. […] The filter discs were punched out and counted in a gamma counter. Compounds are tested in triplicate over a range of concentrations and IC50 (or pIC50) values calculated.

SMILES: COc1nc(C)cnc1NS(=O)(=O)c1ccccc1-c1ccc(CC(C)C(=O)O)cc1 (stereo not shown) [Example 1, 4'-(2-carboxypropyl)-N-(3-methoxy-5-methylpyrazin-2-yl)-2-biphenylsulphonamide]
- pIC50 in Test A: 8.3
